Measured values published in ChEMBL document CHEMBL2202954, “The effect of PLC-γ2 inhibitors on the growth of human tumour cells” (2012).

Columns and labels:
Assay type in all cases: functional
SK-MEL-28 = assay: Cytotoxicity against human SK-MEL-28 cells assessed as cellular growth at 10 uM by SRB assay
SF-539 = assay: Cytotoxicity against human SF539 cells assessed as cellular growth at 10 uM by SRB assay
HL-60(TB) = assay: Cytotoxicity against human HL-60(TB) cells assessed as cellular growth at 10 uM by SRB assay
T47D = assay: Cytotoxicity against human T47D cells assessed as cellular growth at 10 uM by SRB assay
SNB-19 = assay: Cytotoxicity against human SNB19 cells assessed as cellular growth at 10 uM by SRB assay
MCF7 = assay: Cytotoxicity against human MCF7 cells assessed as cellular growth at 10 uM by SRB assay
SF-295 = assay: Cytotoxicity against human SF295 cells assessed as cellular growth at 10 uM by SRB assay
UO-31 = assay: Cytotoxicity against human UO31 cells assessed as cellular growth at 10 uM by SRB assay
LOX IMVI = assay: Cytotoxicity against human LOXIMVI cells assessed as cellular growth at 10 uM by SRB assay
[1] = Cytotoxicity against human NCI-ADR-RES cells assessed as cellular growth at 10 uM by SRB assay
SNB-75 = assay: Cytotoxicity against human SNB75 cells assessed as cellular growth at 10 uM by SRB assay
SR = assay: Cytotoxicity against human SR cells assessed as cellular growth at 10 uM by SRB assay
HT-29 = assay: Cytotoxicity against human HT-29 cells assessed as cellular growth at 10 uM by SRB assay
TK-10 = assay: Cytotoxicity against human TK10 cells assessed as cellular growth at 10 uM by SRB assay
786-0 = assay: Cytotoxicity against human 786-0 cells assessed as cellular growth at 10 uM by SRB assay
EKVX = assay: Cytotoxicity against human EKVX cells assessed as cellular growth at 10 uM by SRB assay
NCI-H322M = assay: Cytotoxicity against human NCI-H322M cells assessed as cellular growth at 10 uM by SRB assay
NCI-H226 = assay: Cytotoxicity against human NCI-H226 cells assessed as cellular growth at 10 uM by SRB assay
OVCAR-3 = assay: Cytotoxicity against human OVCAR3 cells assessed as cellular growth at 10 uM by SRB assay
ACHN = assay: Cytotoxicity against human ACHN cells assessed as cellular growth at 10 uM by SRB assay

| SMILES | Activity (SK-MEL-28) [%] | Activity (SF-539) [%] | Activity (HL-60(TB)) [%] | Activity (T47D) [%] | Activity (SNB-19) [%] | Activity (MCF7) [%] | Activity (SF-295) [%] | Activity (UO-31) [%] | Activity (LOX IMVI) [%] | Activity [1] [%] | Activity (SNB-75) [%] | Activity (SR) [%] | Activity (HT-29) [%] | Activity (TK-10) [%] | Activity (786-0) [%] | Activity (EKVX) [%] | Activity (NCI-H322M) [%] | Activity (NCI-H226) [%] | Activity (OVCAR-3) [%] | Activity (ACHN) [%] |
| --- | --- | --- | --- | --- | --- | --- | --- | --- | --- | --- | --- | --- | --- | --- | --- | --- | --- | --- | --- | --- |
| CC1(C)CCc2cc(-c3ccn(S(=O)(=O)c4cccc(C(F)(F)F)c4)n3)ccc2O1 | 105.56 | 116.68 | 72.67 | 66.31 | 103.83 | 87.68 | 108.32 | 97.36 | 92.84 | 88.98 | 102.76 | 66.68 | 71.22 | 82.31 | 85.72 | 70.44 | 106.64 | 90.51 | 101.58 | 109.2 |
| CC1(C)CC(=O)c2cc3c(N)c(C(=O)Nc4ccc(F)cc4)sc3nc2C1 | 113.65 | 96.07 | 115.83 | 111.5 | 131.09 | 105.49 | 88.4 | 119.15 | 102.36 | 104.25 | 114.82 | 111.31 | 110.56 | 105.13 | 104.75 | 100.32 | 110.83 | 102.68 | 117.81 | 112.82 |
| Cc1ccc(S(=O)(=O)NC2=NC(=O)/C(=C\c3ccccc3)S2)cc1 | 114.12 | 96.06 | 92.36 | 100.5 | 108.61 | 97.41 | 114.32 | 90.79 | 99.09 | 108.06 | 88.62 | 95.9 | 109.22 | 104.1 | 107.82 | 99.77 | 114.86 | 108.84 | 116.48 | 103.63 |
| c1ccc(-c2nc(-c3cccs3)no2)cc1 | 117.87 | 105.74 | 103.76 | 65.5 | 108.69 | 52.58 | 128.58 | 88.86 | 99.72 | 116.69 | 105.81 | 97.61 | 108.03 | 97.25 | 107.03 | 102.25 | 122.94 | 91.26 | 105.28 | 102.77 |
| Cc1ccc2c(c1)N/C(=C/C(=O)c1ccc(Cl)cc1)C(=O)O2 | 116.13 | 106.89 | 97.02 | 106.85 | 105.39 | 87.54 | 113.06 | 94.15 | 100.45 | 104 | 86.32 | 110.86 | 105.84 | 131.96 | 117.98 | 106.62 | 114.58 | 105.28 | 119.21 | 103.68 |
| Cc1ccc(NC(=O)c2sc3nc4c(cc3c2N)C(=O)CCC4)cc1Cl | 108.49 | 102.38 | 105.82 | 105.09 | 114.43 | 102.05 | 79.97 | 110.67 | 99.16 | 103.82 | 110.07 | 105.35 | 97.53 | 96.53 | 103.81 | 86.19 | 109.22 | 101.89 | 112.77 | 109.05 |
| COc1ccc(Cl)cc1C(=O)Nc1nc2ccc(Cl)cc2s1 | 105.02 | 86.39 | 103.5 | 47.23 | 102.79 | 41.75 | 169.8 | 58.24 | 81.24 | 101.67 | 74.28 | 87.67 | 109.45 | 126.89 | 75.8 | 76.23 | 85.62 | 89.17 | 102.8 | 85.89 |
| COc1ccc2[nH]c(C(=O)NCc3ccccc3)cc2c1 | 110.55 | 101.58 | 95.91 | 85.87 | 101.29 | 83.2 | 131.65 | 75.52 | 103.84 | 102.25 | 87.91 | 91.93 | 102.88 | 120.94 | 103.19 | 78.14 | 90.03 | 96.37 | 112.21 | 94.48 |
| Cc1cccc(-c2nc(-c3cccs3)no2)c1 | 109.6 | 115.88 | 96 | 53.59 | 106.75 | 39.04 | 91.28 | 59.19 | 95.98 | 95.15 | 85.75 | 93.72 | 98.29 | 68.05 | 93.47 | 84.59 | 95.9 | 94.62 | 104 | 99.9 |
| Cc1ccc(NC(=O)c2sc3nc(-c4cccs4)ccc3c2N)cc1C | 113.95 | 118.53 | 82.68 | 96.25 | 111.2 | 109.1 | 110.27 | 126.96 | 101.98 | 102.93 | 111.99 | 82.09 | 94.6 | 87 | 105.46 | 103.49 | 123.82 | 107.93 | 98.63 | 125.53 |
| COc1ccc2nc(NC(=O)c3ccc(F)cc3)sc2c1 | 110.86 | 97.47 | 108.33 | 76.48 | 109.05 | 70.13 | 54.56 | 99.75 | 102.03 | 89.25 | 109.5 | 104.31 | 90.2 | 98.88 | 96.69 | 79.56 | 75.75 | 92.48 | 101.58 | 88.79 |
| O=S(=O)(Oc1ccc(-c2cnc3ccccc3n2)cc1)c1ccc2ccccc2c1 | 112.84 | 119.65 | 87.7 | 91.09 | 99.88 | 103.49 | 102.68 | 118.94 | 115.1 | 104.07 | 119.77 | 93.61 | 82.27 | 94.33 | 96.4 | 94.26 | 137.19 | 98.79 | 107.67 | 118.15 |
| O=c1/c(=C/c2ccccc2Cl)sc2nc(-c3ccccc3)nn12 | 109.04 | 94.89 | 66.88 | 90.39 | 90.58 | 91.04 | 99.98 | 58.67 | 63.33 | 90.47 | 64.38 | 45.36 | 112.54 | 123.92 | 101.12 | 99.45 | 96.56 | 100.04 | 108.39 | 97.57 |
| O=C(Nc1ccc(S(=O)(=O)Nc2nccs2)cc1)c1cccs1 | 115.4 | 105.81 | 85.93 | 105.19 | 106.66 | 103.71 | 140.51 | 95.49 | 110.65 | 120.26 | 87.94 | 101.57 | 101.43 | 104.94 | 104.56 | 97.85 | 104.64 | 108.77 | 116.67 | 116.25 |
